Laboratory results published in patent US10166225B2, “Method for treating osteoporosis” (Exelixis, Inc., priority 2011, dated 2019).
Where two headings read alike, the source gives them in different places.

System: KS483 mouse osteoprogenitor cells
Experiment: Osteoblast activity assay (PINP at day 11, calcium deposition at day 13)
Assay type: cell-based
Details: for activity at 0.004 µM / activity at 0.012 µM / activity at 0.037 µM / activity at 0.11 µM / activity at 0.33 µM / activity at 1 µM / activity at 3 µM: Mus musculus, Osteoblast; for activity at 0.004 µM: 0.004 μM Compound 1; for activity at 0.012 µM: 0.012 μM Compound 1; for activity at 0.037 µM: 0.037 μM Compound 1; for activity at 0.11 µM: 0.11 μM Compound 1; for activity at 0.33 µM: 0.33 μM Compound 1; for activity at 1 µM: 1.0 μM Compound 1; for activity at 3 µM: 3.0 μM Compound 1
Protocol: The effects on osteoblasts were studied using KS483 mouse osteoprogenitor cells that can be induced to differentiate into bone-forming osteoblasts. […] In the osteoblast differentiation assay, the cells were cultured for 8 days, after which the formed mature osteoblasts were quantitated by measuring the amount of intracellular alkaline phosphatase (ALP) activity. […] A culture system was established that can be used as an in vitro model for studying the effects of anabolic and estrogen-like compounds on osteoblast differentiation and activity. In this culture system mouse KS483 cells first proliferate and then differentiate into osteoblasts capable of forming mineralized bone nodules in the presence of ascorbic acid and ß-glycerophosphate (Fagerlund et al. 2009). The test and reference compounds are added into the cell cultures concomitantly with the medium change, and their effects on the differentiation and activity of osteoblasts are determined. Cellular ALP, a marker of osteoblast differentiation, is determined from the cell lysates as described earlier (Lowry et al. 1954). Secreted PINP, a marker of organic bone matrix formation, is determined from the culture medium using a commercially available method (Rat/Mouse PINP EIA, IDS Ltd, Boldon, UK). Calcium deposition, an index of inorganic bone matrix formation, is measured using a commercially available calcium assay (Roche Diagnostics). Mouse KS483 cells were cultured in T-75 tissue culture flasks in aMEM supplemented with 10% charcoal-stripped fetal bovine serum until 80-90% confluence. The cells were incubated in a CO2 incubator in humidified atmosphere of 95% air and 5% carbon dioxide at 37° C. After reaching 80-90% confluence, subcultures were prepared. Cells were removed from the flasks with trypsin treatment and counted. For induction of the maturation of osteoblasts and bone formation, the immature osteoblastic cells were plated in type I collagen-coated 96-well plates. The cells were cultured for 13 days with a supplement of ascorbic acid (50 μg/ml) and ß-glycerophosphate (5 mM), and half of the media was changed every 3-4 days. The test compound and control substance (E2) were added in the beginning of the culture period and when the medium was changed. Secreted PINP was measured from the culture medium at day 11 as a marker of organic bone matrix formation. The cultures were stopped at day 13 by removing the culture media from the wells and adding hydrochloric acid. Calcium deposited into the formed bone matrix was quantitated by using VICTOR2™ Multilabel Counter (PerkinElmer, Waltham, Mass., USA).

[1] = 0.004, 0.012, 0.037 and 0.11 μM
[2] = 264 h, read-out: PINP Activity at Day 11, Percent Activity (%) Compared to BL
[3] = 312 h, read-out: Calcium Deposition at Day 13, Percent Activity (%) Compared to BL

Structure (SMILES): COc1cc2nccc(Oc3ccc(NC(=O)C4(C(=O)Nc5ccc(F)cc5)CC4)cc3)c2cc1OC [Compound 1, N-(4-{[6,7-bis(methyloxy)quinolin-4-yl]oxy}phenyl)-N′-(4-fluorophenyl)cyclopropane-1,1-dicarboxamide]
- bone forming activity of osteoblasts [1]: dose-dependent stimulation
- calcium values [1]: increased
- PINP values (0.012 and 0.037 μM): increased
- PINP values (0.33, 1.0 and 3.0 μM): decreased
- bone forming activity of osteoblasts (0.33, 1.0 and 3.0 μM): inhibitory effects
- calcium values (0.33, 1.0 and 3.0 μM): decreased
- activity at 0.004 µM [2]: 117%
- activity at 0.012 µM [2]: 122%
- activity at 0.037 µM [2]: 135%
- activity at 0.11 µM [2]: 101%
- activity at 0.33 µM [2]: 73%
- activity at 1 µM [2]: 42%
- activity at 3 µM [2]: 21%
- activity at 0.004 µM [3]: 145%
- activity at 0.012 µM [3]: 167%
- activity at 0.037 µM [3]: 180%
- activity at 0.11 µM [3]: 144%
- activity at 0.33 µM [3]: 59%
- activity at 1 µM [3]: 12%
- activity at 3 µM [3]: 4%
